Series [1] concerns CYP1A. Description: In vitro inhibition of EROD (7-ethoxyresorufin O-dealkylase) activity in hepatic microsomes. The settings on record: for Inhibition of EROD activity: all exposure groups, concentrations 5 to 100000 nM; for Ki at 5 min: CD-1, mouse, liver microsomes, pH 7.4, probe 7-ethoxyresorufin (0.005 to 4.0 µM). The protocol: (§1) Liver samples were taken immediately after necropsy, frozen in ethanol and dry ice, and stored at −80°C until use. The microsomal fractions were prepared using a calcium aggregation method. Microsomal protein concentration was determined with a commercially available kit (Bio-Rad laboratories Inc., Hercules, CA, USA) according to the manufacturer's instructions.
(§2) In mice, O-dealkylation of 7-ethoxyresorufin is catalyzed by CYP1A1 and CYP1A2 [15], and O-dealkylation of 7-benzyloxyresorufin by CYP3A11 enzyme. The activities of CYP1A and CYP3A were determined as a rate of ethoxy- (EROD) and benzyloxy- (BROD) resorufin O-dealkylation, respectively. Incubation mixtures contained microsomal protein (0.2 mg), phosphate buffer (pH 7.4, 50 mM), and appropriate substrate (1 μM of 7-ethoxyresorufin or 2 μM of 7-benzyloxyresorufin). Reactions were initiated by the addition of 0.5 mM NADPH. The reaction mixture, in a final volume of 500 μL, was incubated in a water bath at 37°C for 5 min (EROD) or 7 min (BROD), and afterwards the reactions were terminated with ice-cold methanol (500 μL), followed by centrifugation at 7,500 ×g. Resorufin concentrations were measured as previously described. EROD and BROD activities were expressed as pmol of resorufin per milligram protein and minute.
(§3) EROD and BROD activities were initially evaluated in the presence of quercetin, naringenin, and sesamin at nine concentrations from 5 to 100000 nM. To examine the inhibition mode, the activities were determined in the presence of 2 or 3 inhibitor concentrations over the substrate concentration ranges 0.005 to 4.0 μM for EROD and 0.05 to 8 μM for BROD, respectively. The stock solutions of quercetin, naringenin, and sesamin were prepared in DMSO and added to incubations to yield final concentrations of 5, 10, 50, 100, 500, 1000, 2000, […], and 100000 nM. The final DMSO content in the incubations was 0.5%. The control incubations contained the same concentration of DMSO.
(§4) Comparison of enzymatic activities in the absence of the inhibitors between studied groups was performed on logarithmically transformed values using a mixed model with fixed effect of treatment (SAS version 9.3, SAS Institute Inc., Cary, NC, USA). The IC50 (concentration causing 50% reduction of control activity) and Ki values for inhibitors were calculated by nonlinear regression analysis using GraphPad prism version 4.0 for Windows (GraphPad, San Diego, CA, USA). Comparisons of IC50 and Ki values between the studied groups were performed on logarithmically transformed values using one-way analysis of variance, followed by the Tukey multiple-comparisons test. Differences were regarded as significant when P < 0.05.

For series [2], the target named is T1, CYP3A (Mus musculus, UniProt Q64459).
T1 sequence (Q64459 1-504): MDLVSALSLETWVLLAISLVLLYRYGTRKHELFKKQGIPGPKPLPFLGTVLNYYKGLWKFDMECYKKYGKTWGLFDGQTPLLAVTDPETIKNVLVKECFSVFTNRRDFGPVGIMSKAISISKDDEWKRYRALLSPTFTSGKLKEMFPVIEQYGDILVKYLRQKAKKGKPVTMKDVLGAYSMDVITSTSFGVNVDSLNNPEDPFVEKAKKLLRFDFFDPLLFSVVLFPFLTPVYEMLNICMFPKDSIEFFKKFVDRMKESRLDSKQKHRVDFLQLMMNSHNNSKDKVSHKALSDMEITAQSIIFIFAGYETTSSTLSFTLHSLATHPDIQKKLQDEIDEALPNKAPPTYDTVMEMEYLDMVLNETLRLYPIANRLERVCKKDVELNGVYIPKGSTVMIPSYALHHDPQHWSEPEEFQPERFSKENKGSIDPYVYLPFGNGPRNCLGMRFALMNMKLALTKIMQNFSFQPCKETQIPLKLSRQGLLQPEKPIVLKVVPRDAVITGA
Nature of the series: in vitro. The settings on record: 2 or 3 inhibitor concentrations, substrate 0.05 to 8 μM. The protocol:
as §1, §2, §3, §4

The target in series [3] is T2, CYP3A (CYP3A11) (Mus musculus, UniProt Q64459).
T2 sequence (Q64459 1-504): T1 sequence (Q64459 1-504)
Nature of the series: in vitro. The settings on record: CD-1, mouse, microsomes; for IC50 at 7 min: pH 7.4, IC50, CYP3A (BROD), 2 μM 7-benzyloxyresorufin. The method, then:
as §1, §2, §3, §4

In series [4] the test system is CYP1A (CYP1A1 and CYP1A2). Nature of the series: In vitro inhibition of EROD (7-ethoxyresorufin O-dealkylase) activity in hepatic microsomes. Conditions: CD-1, mouse, liver microsomes, pH 7.4, probe 7-ethoxyresorufin (1 µM), IC50, CYP1A (EROD), geometric mean (confidence interval), 1 μM 7-ethoxyresorufin. The protocol:
as §1, §2, §3, §4

The mark [5] stands for this setting: microsomes from high POPs-exposed mice, geometric mean (confidence interval).
Where [6] appears, read: microsomes from low POPs-exposed mice, geometric mean (confidence interval).
Where [7] appears, read: microsomes from unexposed mice, geometric mean (confidence interval).
Setting [8] is: pH 7.4, Ki values, BROD activity, range over the unexposed, low- and high-exposed groups.
Where [9] appears, read: pH 7.4, Ki, CYP3A (BROD), microsomes from high POPs-exposed mice, geometric mean (confidence interval).
Setting [10] is: pH 7.4, Ki, CYP3A (BROD), microsomes from low POPs-exposed mice, geometric mean (confidence interval).
[11] abbreviates: pH 7.4, Ki, CYP3A (BROD), microsomes from unexposed mice, geometric mean (confidence interval).

On to `O=C1C[C@@H](c2ccc(O)cc2)Oc2cc(O)cc(O)c21` [Naringenin, naringenin], for which the “Inhibition of EROD activity” value in series [1] was “No inhibition”; in series [1] (listed as naringenin), “Neither naringenin nor sesamin inhibited”. Besides, the “Mode of inhibition of BROD activity” value in series [2] was “noncompetitively inhibited”. Also, the results for the concentration for half-maximal inhibition (IC50) at 7 min in series [3] (setting [5]), in series [3] (setting [6]) and in series [3] (setting [7]) were 43.1 µM, 49.1 µM and 40.3 µM, respectively. Further, the Ki (usually a dissociation constant, usually derived from enzyme kinetics or from competition with a known ligand) at 7 min in series [3] (setting [8]) is 39.3 to 45.8 µM; in series [3] (setting [9]) it was 39.3 µM; in series [3] (setting [10]), 45.8 µM; in series [3] (setting [11]), 42.1 µM.
As for `O=c1c(O)c(-c2ccc(O)c(O)c2)oc2cc(O)cc(O)c12` [Quercetin, quercetin], the figures for the IC50 at 5 min in series [4] (microsomes from high POPs-exposed mice), in series [4] (microsomes from low POPs-exposed mice) and in series [4] (microsomes from unexposed mice) were 5.8 µM, 5.1 µM and 5.4 µM, respectively. In addition, the “Mode of inhibition of EROD activity” value in series [1] (2 or 3 inhibitor concentrations, substrate 0.005 to 4.0 μM) was “competitively inhibited”. Moreover, the inhibitory constant (Ki) at 5 min was 1.7 to 2.6 µM in series [1] (Ki values, EROD activity, range over the unexposed, low- and high-exposed groups); 2.6 µM in series [1] (Ki, CYP1A (EROD), microsomes from high POPs-exposed mice, geometric mean (confidence interval)); 2.6 µM in series [1] (Ki, CYP1A (EROD), microsomes from low POPs-exposed mice, geometric mean (confidence interval)); 1.7 µM in series [1] (Ki, CYP1A (EROD), microsomes from unexposed mice, geometric mean (confidence interval)). Moreover, the “Inhibition of EROD activity” value in series [1] is recorded as “strongly inhibited”. Besides, the “Mode of inhibition of BROD activity” value in series [2] was “noncompetitively inhibited”. Also, the values for the IC50 at 7 min in series [3] (setting [5]), in series [3] (setting [6]) and in series [3] (setting [7]) were 35.7 µM, 27.1 µM and 30.2 µM, respectively. Moreover, the Ki at 7 min in series [3] (setting [8]) was 64.9 to 75.3 µM; in series [3] (setting [9]), 75.3 µM; in series [3] (setting [10]) it was 64.9 µM; in series [3] (setting [11]), 67.1 µM.

Values taken from PMC5439065, “Effect of Naringenin, Quercetin, and Sesamin on Xenobiotica-Metabolizing CYP1A and CYP3A in Mice Offspring after Maternal Exposure to Persistent Organic Pollutants” (BioMed Research International, 2017).
